Assays:
OATP1B1 [1] = target: T1, OATP1B1 (Homo sapiens, UniProt Q9Y6L6); experiment: Inhibition of OATP1B1-mediated [3H]estrone-3-sulfate uptake in HEK293-OATP1B1 cells
T1 sequence (Q9Y6L6 1-691): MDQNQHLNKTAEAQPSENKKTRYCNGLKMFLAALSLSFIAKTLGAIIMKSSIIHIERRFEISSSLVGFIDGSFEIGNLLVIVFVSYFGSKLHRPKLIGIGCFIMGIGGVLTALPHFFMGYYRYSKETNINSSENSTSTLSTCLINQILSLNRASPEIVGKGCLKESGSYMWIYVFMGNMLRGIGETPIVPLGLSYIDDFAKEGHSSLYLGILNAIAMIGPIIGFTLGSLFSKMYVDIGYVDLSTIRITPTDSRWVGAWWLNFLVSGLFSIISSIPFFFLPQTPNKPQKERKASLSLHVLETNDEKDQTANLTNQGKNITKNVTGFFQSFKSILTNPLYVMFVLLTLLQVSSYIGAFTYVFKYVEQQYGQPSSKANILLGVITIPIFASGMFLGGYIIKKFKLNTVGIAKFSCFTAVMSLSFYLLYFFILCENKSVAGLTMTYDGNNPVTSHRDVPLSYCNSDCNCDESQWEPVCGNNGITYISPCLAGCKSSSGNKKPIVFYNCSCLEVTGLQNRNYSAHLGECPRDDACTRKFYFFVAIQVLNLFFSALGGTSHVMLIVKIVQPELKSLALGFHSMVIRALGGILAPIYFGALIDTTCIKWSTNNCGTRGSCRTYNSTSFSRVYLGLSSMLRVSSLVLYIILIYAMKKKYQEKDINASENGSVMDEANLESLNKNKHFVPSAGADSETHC
Description: (§1) HEK293 cells overexpressing the OCT1, OCT2, OAT1, OAT3, OATP1B1, and OATP1B3 transporters (HEK293-OCT1, -OCT2, -OAT1, -OAT3, -OATP1B1, and -OATP1B3, respectively) and HEK293-mock cells (Corning Life Sciences; Woburn, MA, USA) were used and characterized as previously described.
(§2) HEK293 cells overexpressing drug transporters and HEK293-mock cells were seeded in poly-D-lysine-coated 96-well plates at a density of 10^5 cells/well and were cultured in DMEM supplemented with 10% FBS, 5 mM non-essential amino acids, and 2 mM sodium butyrate in a humidified atmosphere with 8% CO2 at 37 °C.
(§3) To examine the effects of ginsenosides and typical inhibitors on transporter activity, aliquots (100 μL) of HBSS containing the probe substrate and ginsenosides or typical inhibitors were added to the cells after aspirating pre-incubated HBSS. The concentrations and probe substrates were as follows: 0.1 μM [^3H]MPP^+ for OCT1 and OCT2, 0.1 μM [^3H]PAH for OAT1, 0.1 μM [^3H]ES for OAT3 and OATP1B1, and 0.1 μM [^3H]EG for OATP1B3. […] Then the uptake of probe substrates into HEK293-mock cells and HEK293-OCT1, -OCT2, -OAT1, -OAT3, -OATP1B1, and -OATP1B3 cells in the presence and absence of typical inhibitor or each ginsenoside with previously described concentration range was measured for 5 min. Immediately after placing the plates on ice, the cells were washed three times with 100 μL of ice-cold HBSS, followed by lysing with 50 μL of 10% SDS solution and mixing with 150 μL of Optiphase cocktail solution (Perkin Elmer Inc., Boston, MA, USA). The radioactivity of the probe substrates in the cells was determined using a liquid scintillation counter.
(§4) In the inhibition studies, the uptake rate of substrate by HEK293 cells overexpressing the respective transporters was used as the control (100%) and the uptake rate of substrates in the presence of typical inhibitors or ginsenosides expressed as a percentage of the control. The inhibition data were fitted to an inhibitory effect model using Sigma plot (version 10.0; Systat Software Inc., San Jose, CA, USA). IC50 value indicated the half-maximal inhibitory concentration of the inhibitor.

OATP1B3 [2] = target: T2, OATP1B3 (Homo sapiens, UniProt Q9NPD5); experiment: Inhibition of OATP1B3-mediated [3H]estradiol-17β-D-glucuronide uptake in HEK293-OATP1B3 cells
T2 sequence (Q9NPD5 1-702): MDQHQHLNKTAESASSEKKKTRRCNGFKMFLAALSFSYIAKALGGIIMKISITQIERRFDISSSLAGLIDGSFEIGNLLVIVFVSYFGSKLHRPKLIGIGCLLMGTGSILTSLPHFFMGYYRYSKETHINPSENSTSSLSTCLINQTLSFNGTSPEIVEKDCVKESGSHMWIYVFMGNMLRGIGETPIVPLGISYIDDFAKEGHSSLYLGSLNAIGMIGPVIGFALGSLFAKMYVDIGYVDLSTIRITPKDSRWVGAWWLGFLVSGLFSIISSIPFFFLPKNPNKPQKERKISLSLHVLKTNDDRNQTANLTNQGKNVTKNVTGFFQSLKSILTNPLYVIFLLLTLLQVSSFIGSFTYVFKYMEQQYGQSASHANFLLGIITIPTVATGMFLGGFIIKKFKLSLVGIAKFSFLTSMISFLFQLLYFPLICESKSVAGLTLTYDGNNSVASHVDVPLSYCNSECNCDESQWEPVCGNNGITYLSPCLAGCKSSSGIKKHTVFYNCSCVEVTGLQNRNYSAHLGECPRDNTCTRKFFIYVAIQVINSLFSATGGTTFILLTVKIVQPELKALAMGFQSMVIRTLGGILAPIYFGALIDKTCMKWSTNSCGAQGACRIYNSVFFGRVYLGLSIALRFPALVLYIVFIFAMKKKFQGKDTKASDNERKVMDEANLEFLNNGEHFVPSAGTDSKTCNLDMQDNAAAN
Description: as §1, §2, §3, §4

[3] = Literature rifampin plasma concentration in rats after oral 20 mg/kg; format: in vivo, rat; details: oral rifampin 20 mg/kg, from literature plasma concentration and protein binding ref 23, 39, 40
[4] = set-up: method as in PMID 25297453, PMID 22139693, PMID 26725427; details: rats, cited from earlier work
[5] = set-up: method as in PMID 25297453, PMID 22139693, PMID 26725427; details: rats ref 23, 39, 40; cited from earlier work
OATP1B1 [6] = target: T1, OATP1B1; experiment: Inhibition of OATP1B1-mediated valsartan uptake in HEK293-OATP1B1 cells; format: cell-based; set-up: host or cells: HEK293; details: 5 μM valsartan, 5 min
Description: (§5) Transporter mediated uptake of probe substrates or valsartan was calculated by subtracting the uptake rate of probe substrates or valsartan into HEK293-mock cells from that into HEK293 cells expressing respective transporters.

OATP1B3 [7] = target: T2, OATP1B3; experiment: Inhibition of OATP1B3-mediated valsartan uptake in HEK293-OATP1B3 cells; format: cell-based; set-up: host or cells: HEK293; details: 5 μM valsartan, 5 min
Description: as §5

## CO[C@H]1/C=C/O[C@@]2(C)Oc3c(C)c(O)c4c(O)c(c(/C=N/N5CCN(C)CC5)c(O)c4c3C2=O)NC(=O)/C(C)=C\C=C\[C@H](C)[C@H](O)[C@@H](C)[C@@H](O)[C@@H](C)[C@H](OC(C)=O)[C@@H]1C [Rifampin, rifampin, reference compound]
OATP1B1 [1]
  IC50: 28.6 µM
OATP1B3 [2]
  IC50: 0.81 µM
[3]
  unbound concentration of rifampin: 4.7 to 22.9 µM
[4]; oral rifampin 20 mg/kg ref 23, 39, 40
  Cmax of rifampin: 15700 to 24500 ng/mL
[4]; oral rifampin 20 mg/kg, for 12 h ref 23, 39, 40
  plasma concentration of rifampin: over 5 μg/mL
[5]
  protein binding of rifampin: 23.1%
OATP1B1 [6]
  IC50: 13.8 µM
OATP1B3 [7]
  IC50: 3.6 µM
